Laboratory results taken from patent publication US6924302B2, “Substituted triazole diamine derivatives as kinase inhibitors” (Ortho McNeil Pharmaceutical, Inc., priority 2000, dated 2005).
Where two headings read alike, the source gives them in different places.

Columns and labels:
[1] = biological target: T1, CDK2 in complex with cyclin A (Homo sapiens, UniProt P24941); assay: Kinase Selectivity Assay CDK2; assay type: biochemical; conditions: Table 1
T1 construct: purchased Upstate Biotech
Description: (§1) Assays to test compound inhibition of other kinases were preformed using methods that measure the amount of phosphorylation of a biotinylated peptide substrate. Biotinylated peptide substrates were selected from the literature as appropriate for the enzyme being evaluated. […] Assay conditions vary slightly for each protein kinase, for example, insulin receptor kinase requires 10 mM MnCl2 for activity and Calmodulin-dependent protein kinase requires calmodulin and 10 mM CaCl2. These assay conditions are known in the art. The reaction mixture was dispensed into the wells of a streptavidin coated Flashplate and 1 μl drug stock in 100% DMSO was added to a 100 μl reaction volume resulting in a final concentration of 1% DMSO on the reaction. Enzyme was diluted in 50 mM Tris-HCl pH=8.0, 0.1% BSA and add to each well. The reaction was incubated for one hour at 30° C. in the presence of compound. After one hour the reaction mix was aspirated from the plate and the plate was washed with PBS containing 100 mM EDTA. The plate was read on a scintillation counter to determine ^33P-γ-ATP incorporated into the immobilized peptide. Test compounds were assayed in duplicate at 8 concentrations [100 uM, 10 uM, 1 uM, 100 nM, 10 nM, 1 nM, 100 pM, 10 pM]. A maximum and minimum signal for the assay was determined on each plate. The IC50 was calculated from the dose response curve of the percent inhibition of the maximum signal in the assay according to the formula [max signal—background/test compound signal—background (100)=% inhibition] by graphing the percent inhibition against the log concentration of test compound. Known inhibitor compounds appropriate for the kinase being assayed were also included on each plate.
(§2) CDK2 in complex with cyclin A is commercially available (Upstate Biotech, Lake Placid, N.Y.). The CDK4 complex was composed of a mouse CDK4 protein and a mouse Cyclin D1 protein (The mouse CDK4 protein was genetically fused to an N-terminal Flag-epitope tag and the mouse Cyclin D1 protein was fused with an N-terminal AU-1 epitope tag. The genes encoding these proteins were transferred to commercially available baculoviral vectors. The recombinant CDK4/D1 complex was then made by co-infecting commercially available insect cells with viruses carrying these two constructs). […] ERK-1 protein (Discontinued from Calbiochem). EGFR (epidermal growth factor receptor) is purified from human A431 cell membranes (Sigma, St. Louis, Mo., Cat.# E3641).

Insulin Receptor Kinase = Insulin Receptor Kinase (Homo sapiens, UniProt P06213); assay: Kinase Selectivity Assay Insulin Receptor Kinase; assay type: biochemical; conditions: Kinase Selectivity, Tables 2a-2k; read-out: Insulin R Kinase IC50
Insulin Receptor Kinase, sequence (P06213 980-1352): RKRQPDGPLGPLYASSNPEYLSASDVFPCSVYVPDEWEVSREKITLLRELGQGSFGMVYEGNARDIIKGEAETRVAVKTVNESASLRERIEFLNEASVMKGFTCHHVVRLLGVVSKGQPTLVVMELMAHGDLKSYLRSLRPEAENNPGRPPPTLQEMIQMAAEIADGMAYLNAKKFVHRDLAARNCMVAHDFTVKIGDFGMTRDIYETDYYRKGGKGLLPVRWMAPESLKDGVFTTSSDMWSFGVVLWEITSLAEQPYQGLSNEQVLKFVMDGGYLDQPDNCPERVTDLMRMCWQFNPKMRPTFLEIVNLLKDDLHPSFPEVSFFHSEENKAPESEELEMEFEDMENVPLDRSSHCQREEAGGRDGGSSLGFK
Description: as §1, §2

Protein Kinase A = biological target: T2, Protein Kinase A (Bos taurus, UniProt P00517); assay: Kinase Selectivity Assay Protein Kinase A; assay type: biochemical, bovine; conditions: Kinase Selectivity, Tables 2a-2k; read-out: PKA IC50
T2 construct: purified from bovine heart; purchased Upstate Biotech 14-114; host or cells: bovine heart
Description: as §1, §2

[2] = biological target: T3, Casein Kinase 1 (CK1 delta isoform) (Rattus norvegicus, UniProt Q06486); assay: Kinase Selectivity Assay Casein Kinase 1; assay type: biochemical; conditions: Tables 2a-2k, read-out: Caseine Kinase 1 IC50
T3 construct: a truncation at amino acid 318 of the C-terminal portion of the rat CK1 delta isoform; purchased New England Biolabs 6030; host or cells: E. coli
T3 sequence (Q06486 1-317): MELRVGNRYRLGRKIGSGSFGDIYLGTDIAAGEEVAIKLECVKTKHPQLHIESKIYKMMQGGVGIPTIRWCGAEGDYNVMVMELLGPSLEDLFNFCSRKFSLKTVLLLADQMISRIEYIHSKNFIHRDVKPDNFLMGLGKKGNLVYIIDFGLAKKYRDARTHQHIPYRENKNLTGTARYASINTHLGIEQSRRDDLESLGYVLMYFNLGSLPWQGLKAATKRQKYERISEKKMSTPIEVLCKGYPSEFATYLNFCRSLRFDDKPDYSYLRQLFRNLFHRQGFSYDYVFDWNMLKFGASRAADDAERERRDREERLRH
Description: as §1, §2

[3] = biological target: T4, Casein Kinase 2 (alpha and beta subunits) (Homo sapiens, UniProt P68400); assay: Kinase Selectivity Assay Casein Kinase 2; assay type: biochemical; conditions: Kinase Selectivity, Tables 2a-2k; read-out: Caseine Kinase 2 IC50
T4 construct: purchased New England Biolabs 6010; host or cells: E. coli
T4 sequence (P68400 whole entry): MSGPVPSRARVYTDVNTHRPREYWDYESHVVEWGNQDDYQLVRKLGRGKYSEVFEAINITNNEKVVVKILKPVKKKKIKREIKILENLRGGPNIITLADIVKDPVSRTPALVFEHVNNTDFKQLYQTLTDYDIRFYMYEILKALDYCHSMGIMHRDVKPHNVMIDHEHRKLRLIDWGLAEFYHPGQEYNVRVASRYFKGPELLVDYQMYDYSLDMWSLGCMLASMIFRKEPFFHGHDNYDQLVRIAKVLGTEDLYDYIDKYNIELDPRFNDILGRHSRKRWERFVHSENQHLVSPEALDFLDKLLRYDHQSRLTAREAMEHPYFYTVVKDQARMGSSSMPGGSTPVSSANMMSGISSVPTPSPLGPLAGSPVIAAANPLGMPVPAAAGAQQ
T4 sequence (P67870 whole entry partner): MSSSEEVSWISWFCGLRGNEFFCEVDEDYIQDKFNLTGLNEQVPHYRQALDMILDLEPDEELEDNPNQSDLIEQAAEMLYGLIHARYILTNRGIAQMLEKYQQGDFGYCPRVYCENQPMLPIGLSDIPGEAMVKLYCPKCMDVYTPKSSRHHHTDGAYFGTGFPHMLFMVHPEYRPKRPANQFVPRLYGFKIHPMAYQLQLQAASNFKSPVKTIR
Description: as §1, §2

[4] = biological target: T5, Calmodulin Kinase (calmodulin-dependent protein kinase 2) (Rattus norvegicus, UniProt P11275); assay: Kinase Selectivity Assay Calmodulin Kinase; assay type: biochemical; conditions: Kinase Selectivity, Tables 2a-2k; read-out: Calmodulin Kinase 2 IC50
T5 construct: a truncated version of the alpha subunit of the rat protein; purchased New England Biolabs 6060; host or cells: insect cells
Description: as §1, §2

[5] = biological target: T6, Glycogen Synthase Kinase-3 (beta isoform) (Oryctolagus cuniculus, UniProt G1T8E2); assay: Kinase Selectivity Assay Glycogen Synthase Kinase-3; assay type: biochemical, rabbit; conditions: Kinase Selectivity, Tables 2a-2k; read-out: GSK-3 IC50
T6 construct: purchased New England Biolabs 6040; host or cells: E. coli
T6 sequence (G1T8E2 1-432): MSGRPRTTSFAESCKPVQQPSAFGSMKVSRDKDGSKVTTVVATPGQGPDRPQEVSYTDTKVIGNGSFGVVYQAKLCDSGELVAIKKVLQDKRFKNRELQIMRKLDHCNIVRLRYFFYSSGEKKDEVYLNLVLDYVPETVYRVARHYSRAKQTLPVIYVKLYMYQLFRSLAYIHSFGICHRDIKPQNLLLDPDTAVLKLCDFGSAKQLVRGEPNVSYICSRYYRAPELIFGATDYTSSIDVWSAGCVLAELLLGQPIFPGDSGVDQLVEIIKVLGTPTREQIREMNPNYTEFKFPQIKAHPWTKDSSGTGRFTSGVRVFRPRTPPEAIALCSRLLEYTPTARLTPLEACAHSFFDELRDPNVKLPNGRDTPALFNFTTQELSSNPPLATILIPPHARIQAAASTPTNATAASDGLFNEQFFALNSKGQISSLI
Description: as §1, §2

[6] = biological target: T7, MAP Kinase (ERK-2 isoform) (Rattus norvegicus, UniProt P63086); assay: Kinase Selectivity Assay MAP Kinase (ERK-2); assay type: biochemical; conditions: Kinase Selectivity, Tables 2a-2k; read-out: ERK 2 IC50
T7 construct: polyhistidine (N); host or cells: E. coli
T7 sequence (P63086 whole entry, canonical isoform): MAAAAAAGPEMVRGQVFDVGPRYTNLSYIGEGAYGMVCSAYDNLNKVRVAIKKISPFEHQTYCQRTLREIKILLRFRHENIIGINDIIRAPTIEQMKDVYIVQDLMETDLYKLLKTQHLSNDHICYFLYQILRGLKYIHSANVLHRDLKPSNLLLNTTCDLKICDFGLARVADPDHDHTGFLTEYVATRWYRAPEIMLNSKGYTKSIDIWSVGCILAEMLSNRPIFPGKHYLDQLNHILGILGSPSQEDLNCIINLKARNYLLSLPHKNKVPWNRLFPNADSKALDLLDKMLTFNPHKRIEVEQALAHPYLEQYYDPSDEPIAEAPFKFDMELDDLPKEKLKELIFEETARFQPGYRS
Description: as §1, §2

[7] = biological target: T8, PDGF-R (platelet derived growth factor receptor) beta subunit kinase domain (Homo sapiens, UniProt P09619); assay: Kinase Selectivity Assay PDGF-R; assay type: biochemical; conditions: Kinase Selectivity, Tables 2a-2k; read-out: PDGF-R kinase IC50
T8 construct: nucleotides 1874-3507 of the human PDGF-R beta subunit kinase domain; polyhistidine (N)
T8 sequence (P09619 564-1106): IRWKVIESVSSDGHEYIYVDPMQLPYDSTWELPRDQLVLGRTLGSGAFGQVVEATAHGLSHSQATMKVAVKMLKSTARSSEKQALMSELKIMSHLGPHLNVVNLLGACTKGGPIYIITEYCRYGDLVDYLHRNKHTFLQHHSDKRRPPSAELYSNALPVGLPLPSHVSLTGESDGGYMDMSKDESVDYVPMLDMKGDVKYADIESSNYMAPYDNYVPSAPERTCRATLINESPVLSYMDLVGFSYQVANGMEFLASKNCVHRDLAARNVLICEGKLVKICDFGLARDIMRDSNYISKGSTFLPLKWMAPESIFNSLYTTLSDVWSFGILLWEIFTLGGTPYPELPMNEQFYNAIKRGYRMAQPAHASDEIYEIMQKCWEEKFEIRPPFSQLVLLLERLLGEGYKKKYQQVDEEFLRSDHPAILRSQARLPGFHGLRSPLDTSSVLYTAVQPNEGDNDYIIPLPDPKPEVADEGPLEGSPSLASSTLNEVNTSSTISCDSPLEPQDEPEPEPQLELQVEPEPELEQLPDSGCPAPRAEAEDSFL
Description: as §1, §2

[8] = system: HeLa cervical adenocarcinoma; assay: Inhibition of Cell Proliferation (14C-thymidine incorporation), HeLa; assay type: cell-based; conditions: Homo sapiens, HeLa cell line
Description: (§3) The ability of a test compound to inhibit the proliferation of cell growth was determined by measuring incorporation of ^14C-labelled thymidine into newly synthesized DNA within the cells. This method was used on cell lines derived from carcinomas originating from several tissues such as HeLa cervical adenocarcinoma (American Type Culture Collection (ATCC), Virginia, Cat. #CCL-2), A375 malignant melanoma (ATCC CRL-1619), SK-OV-3 ovarian adenocarcinoma (ATCC HTB-77) HCT-116 colon carcinoma (CCL-247), PC-3 prostate adenocarcinoma (ATCC CRL-1435), and MDA-MB-231 (Xenogen Corp.) In this way the effect of a compound on cell growth of cells with many different phenotypes can be determined. Cells were trypsinized and counted and 3000-8000 cells were added to each well of a 96-well CytoStar tissue culture treated scintillating microplate (Amersham #RPNQ0160) in complete medium in a volume of 100 μl. Cells were incubated for 24 hours in complete medium at 37° C. in an atmosphere containing 5% CO2. Next, 1 μl of test compound in 100% DMSO was added to the wells of the plate. DMSO only was added to control wells. Cells were incubated for 24 more hours in complete medium at 37° C. in an atmosphere containing 5% CO2. Methyl ^14C-thymidine 56 mCi/mmol (NEN #NEC568 or Amersham #CFA532) was diluted in complete medium and 0.2 uCi/well was added to each well of the CytoStar plate in a volume of 20 μl. The plate was incubated for 24 hours at 37° C. plus 5% CO2 in drug plus ^14C-thymidine. The contents of the plate were discarded into a ^14C radioactive waste container by inverting the plate and the plate was washed twice with 200 μl PBS. 200 μl of PBS is added to each well. The top of the plate was sealed with a transparent plate sealer and a white plate backing sealer (Packard #6005199) was applied to the bottom of the plate. The degree of methyl ^14C-thymidine incorporation was quantified on a Packard Top Count.

A375 malignant melanoma = assay: Inhibition of Cell Proliferation (14C-thymidine incorporation), A375; assay type: cell-based; conditions: Homo sapiens, A-375, A375 cell line
Description: as §3

HCT-116 colon carcinoma = assay: Inhibition of Cell Proliferation (14C-thymidine incorporation), HCT-116; assay type: cell-based; conditions: Homo sapiens, HCT-116 cell line
Description: as §3

FGF-R2 = FGF-R2 (Homo sapiens, UniProt P21802); assay: Kinase Selectivity Assay FGF-R2; assay type: biochemical; conditions: Tables 2a-2k
FGF-R2, sequence (P21802 22-821, species assumed): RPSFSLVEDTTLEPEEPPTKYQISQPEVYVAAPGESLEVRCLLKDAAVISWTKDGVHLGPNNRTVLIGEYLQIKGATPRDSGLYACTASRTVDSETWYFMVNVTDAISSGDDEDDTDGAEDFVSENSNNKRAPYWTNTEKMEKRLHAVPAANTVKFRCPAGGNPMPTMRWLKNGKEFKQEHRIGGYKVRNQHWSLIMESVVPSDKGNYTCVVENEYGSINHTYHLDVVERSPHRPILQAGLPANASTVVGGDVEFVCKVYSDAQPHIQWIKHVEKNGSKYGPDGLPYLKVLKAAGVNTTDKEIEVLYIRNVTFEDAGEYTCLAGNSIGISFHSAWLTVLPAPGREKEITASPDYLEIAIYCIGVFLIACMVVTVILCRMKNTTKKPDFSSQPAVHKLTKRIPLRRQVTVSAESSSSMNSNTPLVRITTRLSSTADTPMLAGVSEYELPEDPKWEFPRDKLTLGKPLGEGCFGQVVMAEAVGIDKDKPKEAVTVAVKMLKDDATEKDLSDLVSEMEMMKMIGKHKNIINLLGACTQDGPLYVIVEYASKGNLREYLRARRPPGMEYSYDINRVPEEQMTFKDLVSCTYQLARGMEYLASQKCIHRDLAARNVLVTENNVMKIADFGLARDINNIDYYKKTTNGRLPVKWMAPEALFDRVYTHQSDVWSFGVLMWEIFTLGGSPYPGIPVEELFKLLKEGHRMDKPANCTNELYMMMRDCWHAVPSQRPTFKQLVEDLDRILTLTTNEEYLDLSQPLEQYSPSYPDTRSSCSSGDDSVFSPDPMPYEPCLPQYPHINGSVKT
Description: as §1

CDK1:Cyclin-B = biological target: T9, CDK1:Cyclin-B (Homo sapiens, UniProt P06493); assay: CDK1 Screening Assay; assay type: biochemical; conditions: read-out: CDK1 IC50
T9 construct: purchased New England Biolabs 6020; host or cells: insect cells
Procedure, shortened: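 Human CDK1:cyclin-B (30 ng/well) with biotinylated histone-H1 peptide and ^33P-γ-ATP, 1 h at 30° C, 1% DMSO, on streptavidin FlashPlate; incorporation read by scintillation.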

[9] = biological target: T10, HER2 (human epidermal growth factor receptor-2) (Homo sapiens, UniProt P04626); assay: Kinase Selectivity Assay HER2; assay type: biochemical
T10 construct: begins at amino acid 676 followed by the remainder of the HER2 cytoplasmic domain; polyhistidine (N)
T10 sequence (P04626 676-1255 limits assumed): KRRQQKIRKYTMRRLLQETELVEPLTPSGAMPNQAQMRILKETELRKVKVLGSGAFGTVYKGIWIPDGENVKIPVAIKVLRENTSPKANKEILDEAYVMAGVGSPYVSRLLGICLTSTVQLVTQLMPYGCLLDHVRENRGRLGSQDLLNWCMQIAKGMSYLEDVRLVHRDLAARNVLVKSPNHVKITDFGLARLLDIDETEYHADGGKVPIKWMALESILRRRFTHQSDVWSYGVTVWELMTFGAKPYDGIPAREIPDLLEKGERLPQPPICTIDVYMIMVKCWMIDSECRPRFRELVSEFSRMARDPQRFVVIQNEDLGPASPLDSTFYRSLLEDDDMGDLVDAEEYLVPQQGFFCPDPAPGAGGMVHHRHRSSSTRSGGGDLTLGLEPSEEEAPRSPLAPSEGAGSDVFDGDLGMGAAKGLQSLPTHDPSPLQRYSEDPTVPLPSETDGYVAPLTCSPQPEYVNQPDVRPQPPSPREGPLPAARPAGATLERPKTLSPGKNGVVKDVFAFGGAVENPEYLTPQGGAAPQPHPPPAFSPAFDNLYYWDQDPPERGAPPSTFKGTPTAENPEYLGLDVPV
Procedure, shortened: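 Radiometric Flashplate format: ^33P-γ-ATP transfer to immobilized biotinylated peptide, 1 h, 30° C, 1% DMSO final, enzyme in 50 mM Tris-HCl pH=8.0 + 0.1% BSA. Duplicate 8-point dilution, 100 uM down to 10 pM. IC50 from % inhibition of plate max signal versus log conc.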

[10] = biological target: T11, VEGF-R (vascular endothelial growth factor receptor-2) (Rattus norvegicus, UniProt O08775); assay: VEGF-R Screening Assay; assay type: biochemical; conditions: read-out: VEGF-R IC50
T11 construct: polyhistidine (6xHIS) (N)
T11 sequence (O08775 786-1343): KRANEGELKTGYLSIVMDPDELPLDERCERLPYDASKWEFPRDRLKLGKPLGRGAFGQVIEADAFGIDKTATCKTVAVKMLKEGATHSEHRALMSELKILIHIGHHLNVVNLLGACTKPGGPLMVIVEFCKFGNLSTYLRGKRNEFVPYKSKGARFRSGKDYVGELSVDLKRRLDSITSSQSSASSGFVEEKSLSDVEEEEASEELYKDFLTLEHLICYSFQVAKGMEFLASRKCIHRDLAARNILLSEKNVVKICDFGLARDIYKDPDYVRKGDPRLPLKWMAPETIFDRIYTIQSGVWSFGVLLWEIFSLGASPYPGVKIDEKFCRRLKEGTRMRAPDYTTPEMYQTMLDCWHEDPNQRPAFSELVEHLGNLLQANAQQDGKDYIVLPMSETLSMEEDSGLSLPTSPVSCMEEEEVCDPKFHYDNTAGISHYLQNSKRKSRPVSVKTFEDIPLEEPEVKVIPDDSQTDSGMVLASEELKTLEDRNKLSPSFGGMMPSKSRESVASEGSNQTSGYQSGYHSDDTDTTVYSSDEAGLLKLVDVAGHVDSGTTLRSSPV

[11] = Kinase Selectivity, Tables 2a-2k
[12] = Kinase Selectivity, Tables 2a-2k, read-out: HER2 Kinase IC50

Row | Compound | IC50 [1] [nM] | IC50 (Insulin Receptor Kinase) [nM] | IC50 (Protein Kinase A) [nM] | IC50 [2] [nM] | IC50 [3] [nM] | IC50 [4] [nM] | IC50 [5] [nM] | IC50 [6] [nM] | IC50 [7] [nM] | IC50 [8] [nM] | IC50 (A375 malignant melanoma) [nM] | IC50 (HCT-116 colon carcinoma) [nM] | IC50 (FGF-R2) [nM] | IC50 (CDK1:Cyclin-B; [11]) [nM] | IC50 (CDK1:Cyclin-B; Table 1) [nM] | IC50 [9, 12] [nM] | IC50 ([9]; Table 1, read-out: HER2 IC50) [nM] | IC50 [10, 11] [nM] | IC50 ([10]; Table 1) [nM]
1 | Cc1ccsc1C(=O)n1nc(Nc2ccc(S(=O)(=O)Nc3ccccn3)cc2)nc1N [Cpd 121] | 3 | > 100000 | > 100000 | > 10000 | > 100000 | > 100000 | 29 | > 100000 | 394 | 310 | 215 | 608 |  |  |  |  |  |  | 
2 | Cc1ccc(F)c(C(=O)n2nc(Nc3ccc(N4CCNC4=O)cc3)nc2N)c1F [Cpd 114, 1-[4-[[5-amino-1-(2,6-difluoro-3-methylbenzoyl)-1H-1,2,4-triazol-3-yl]amino]phenyl]-2-imidazolidinone] |  | > 100000 | > 100000 | 2000 | > 100000 | > 100000 | 431 | 15800 | 13800 | 2530 | 1690 | 1380 |  |  |  |  |  |  | 
3 | Cc1cc(C)c(C(=O)n2nc(Nc3ccc(S(=O)(=O)NCCN(C)C)cc3)nc2N)s1 [Cpd 107] | 2 | 311 | > 100000 | 412 | > 10000 | 3430 | 15 | > 10000 | 143 | 177 | 113 | 95 | 235 |  |  |  |  |  | 
4 | Nc1nc(Nc2ccc(N3CCNC3=O)cc2)nn1C(=O)c1c(F)cccc1F [Cpd 115, 1-[4-[[5-amino-1-(2,6-difluorobenzoyl)-1H-1,2,4-triazol-3-yl]amino]phenyl]-2-imidazolidinone] |  | > 10000 | > 100000 | 9980 | > 100000 | > 100000 | 391 | > 10000 | > 10000 | 676 | 529 | 486 |  |  |  |  |  |  | 
5 | Nc1ccc(F)c(C(=O)n2nc(Nc3ccc(S(N)(=O)=O)cc3)nc2N)c1F [Cpd 55, 4-[[5-amino-1-(3-amino-2,6-difluorobenzoyl)-1H-1,2,4-triazol-3-yl]amino]-benzenesulfonamide] |  | > 100000 | > 100000 | 9600 | > 100000 | > 100000 | 40 | 12900 | 16200 |  |  |  | 478 | 20 | 22 | 2190 | 2190 |  | 
6 | Cc1ccc(F)c(C(=O)n2nc(Nc3ccc(S(=O)(=O)NCCN(C)C)cc3)nc2N)c1F [Cpd 105] | 2 | 9850 | > 100000 | 4490 | > 100000 | > 100000 | 82 | 18200 | 2200 | 626 | 652 | 320 | 142 |  |  |  |  |  | 
7 | Nc1nc(Nc2ccc(S(N)(=O)=O)cc2)n(C(=S)Nc2c(F)cccc2F)n1 [Cpd 128, 3-amino-5-[[4-(aminosulfonyl)phenyl]amino]-N-(2,6-difluorophenyl)-1H-1,2,4-triazole-1-carbothioamide] | 3.3 | 2650 | > 100000 | 8970 | > 100000 | 13200 | 94 | 2070 | 1910 |  |  |  |  |  |  |  |  | 118 | 118
8 | CCc1ccc(C(=O)n2nc(Nc3ccc(NS(C)(=O)=O)cc3)nc2N)s1 [Cpd 110] | 5 | 53 | > 100000 | 192 | > 5000 | > 100000 | 8 | 8750 | 285 | 237 | 239 | 187 | 153 |  |  | 6 | 5.5 |  | 
